From patent publication US20230339878A1, “SLC26A3 INHIBITORS AND USE THEREOF” (THE REGENTS OF THE UNIVERSITY OF CALIFORNIA, priority 2018, published 2023)
“Also recorded” adds a separate entry of the source.

Key:
murine slc26a3 = target: T1, murine slc26a3 (Mus musculus, UniProt Q9WVC8); assay: slc26a3-mediated Cl-/I- exchange, YFP fluorescence quenching in FRT-YFP-slc26a3 cells; type: cell-based
T1 construct: host or cells: Fischer rat thyroid (FRT) cells expressing YFP, clonal line FRT-YFP-slc26a3
T1 sequence (Q9WVC8 1-757): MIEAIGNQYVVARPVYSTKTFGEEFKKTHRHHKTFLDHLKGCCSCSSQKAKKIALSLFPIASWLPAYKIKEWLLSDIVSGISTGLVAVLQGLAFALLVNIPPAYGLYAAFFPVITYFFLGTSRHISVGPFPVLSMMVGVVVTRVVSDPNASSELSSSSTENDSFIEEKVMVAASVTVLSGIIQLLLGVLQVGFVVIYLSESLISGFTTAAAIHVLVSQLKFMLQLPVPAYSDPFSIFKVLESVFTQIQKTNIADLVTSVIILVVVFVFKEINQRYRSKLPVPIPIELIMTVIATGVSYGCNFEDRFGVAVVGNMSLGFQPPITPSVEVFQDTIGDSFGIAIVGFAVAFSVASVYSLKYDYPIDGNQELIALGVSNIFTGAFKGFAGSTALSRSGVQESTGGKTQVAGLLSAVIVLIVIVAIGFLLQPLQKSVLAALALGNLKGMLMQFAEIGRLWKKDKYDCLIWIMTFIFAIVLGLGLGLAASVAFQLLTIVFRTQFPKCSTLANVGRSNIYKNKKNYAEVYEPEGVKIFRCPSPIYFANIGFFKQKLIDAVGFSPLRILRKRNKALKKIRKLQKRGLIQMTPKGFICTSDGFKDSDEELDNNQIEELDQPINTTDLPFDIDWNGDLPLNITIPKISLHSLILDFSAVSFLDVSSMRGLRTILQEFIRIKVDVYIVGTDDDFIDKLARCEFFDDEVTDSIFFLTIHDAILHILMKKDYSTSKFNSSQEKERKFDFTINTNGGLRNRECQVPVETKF

[1] = test system: cystic fibrosis (CF) mice (ΔF508 homozygous) lacking functional CFTR; assay: Loperamide-induced constipation model in cystic fibrosis mice; type: in vivo; conditions: 5 mg/kg oral
Protocol: Female CD1 mice (age 8-10 weeks) were administered loperamide (0.3 mg/kg, intraperitoneally, Sigma-Aldrich) to produce constipation. Compound A1 (DRAinh-A250) (5 mg/kg, in saline containing vehicle (5% DMSO and 10% Kolliphor HS 15; Sigma-Aldrich)), tenapanor (5 mg/kg, in vehicle), both compounds (5 mg/kg each, in vehicle), or vehicle alone were administered by oral gavage 1 hour before loperamide. After loperamide injection, mice were placed individually in metabolic cages with ad libitum access to food and water. Stool samples were collected for 3 h, and total stool weight and number of fecal pellets were quantified. To measure stool water content, stool samples were dried at 80° C. for 24 h and water content was calculated as [wet weight-dry weight]/wet weight. Similar studies were done in cystic fibrosis (CF) mice (ΔF508 homozygous) lacking functional CFTR.

For `Cc1c(CC(=O)O)c(=O)oc2c(C)c(OCc3cccc(Br)c3)ccc12` [Compound A1], the t½ for inhibition (murine slc26a3; 1 µM, incubation for different times prior to Cl-/I- exchange) was ~ 30 s, the IC50 (murine slc26a3; summary over three anion exchange modes, read-out: IC50 for slc26a3-mediated Cl- exchange with HCO3-, I- and SCN-) was roughly 200 nM and the “efficacy in loperamide-induced constipation in CF mice” value [1] was “effective in loperamide-treated cystic fibrosis mice; also recorded: reduces loperamide-induced constipation”.
